Measured values published in patent US10131642B1, “Aldosterone synthase inhibitors” (Boehringer Ingelheim International GmbH, priority 2015, dated 2018).

Columns and labels:
[1] = target: cortisol synthase (CYP11B1) (Macaca fascicularis, UniProt A0A2K5ULY1); test: Inhibition of cortisol synthesis (cynomolgus adrenal mitochondria, cortisol by mass spectrometry); type: biochemical, cynomolgus monkey; settings: cynomolgus adrenal gland mitochondria, 11-deoxycortisol as substrate, cortisol measured as product; read-out: CYP11B1 Inhibition IC50
Method: The aldosterone synthase and cortisol synthase inhibition assays employ cynomolgus adrenal gland mitochondria as the source of aldosterone synthase (CYP11B2) and cortisol synthase (CYP11B1). Mitochondria are prepared from frozen cynomolgus monkey adrenal glands according to Method A described in by J. D. McGarry et al. (Biochem. J., 1983, 214, 21-28), with a final resuspension in the AT buffer described in R. Yamaguchi et al. (Cell Death and Differentiation, 2007, 14, 616-624), frozen as aliquots in liquid nitrogen and stored at −80° C. until use. Activity of CYP11B2 and CYP11B1 in these preparations is defined as the amount of enzyme that generates 1 pmol of product in one hour under the conditions described. Dose dependent inhibition is quantified by the inclusion of compound at various concentrations. Maximum activity (100%) is defined by reactions containing NADPH, but without compound. Activities at each concentration are expressed as a percentage of the maximum activity (y-axis) and plotted against concentration of compound (x-axis) and the concentration corresponding to 50% activity (IC50) determined using the XLFit curve-fitting program using a 4-parameter logistic model. Assays are performed as for aldosterone synthase except for the use of 150 units of CYP11B1, 11-deoxycortisol as substrate and cortisol measured as product.

[2] = target: T1, aldosterone synthase (CYP11B2) (Macaca fascicularis, UniProt A0A2K5UPL9); test: Inhibition of aldosterone synthase (cynomolgus adrenal mitochondria, aldosterone by mass spectrometry); type: biochemical, cynomolgus monkey; settings: cynomolgus adrenal gland mitochondria, 2 μM corticosterone substrate, 90 minutes at 37° C.
T1 construct: cynomolgus adrenal gland mitochondria as the source of aldosterone synthase (CYP11B2); from tissue; host or cells: cynomolgus monkey adrenal gland mitochondria
T1 sequence (A0A2K5UPL9 1-503): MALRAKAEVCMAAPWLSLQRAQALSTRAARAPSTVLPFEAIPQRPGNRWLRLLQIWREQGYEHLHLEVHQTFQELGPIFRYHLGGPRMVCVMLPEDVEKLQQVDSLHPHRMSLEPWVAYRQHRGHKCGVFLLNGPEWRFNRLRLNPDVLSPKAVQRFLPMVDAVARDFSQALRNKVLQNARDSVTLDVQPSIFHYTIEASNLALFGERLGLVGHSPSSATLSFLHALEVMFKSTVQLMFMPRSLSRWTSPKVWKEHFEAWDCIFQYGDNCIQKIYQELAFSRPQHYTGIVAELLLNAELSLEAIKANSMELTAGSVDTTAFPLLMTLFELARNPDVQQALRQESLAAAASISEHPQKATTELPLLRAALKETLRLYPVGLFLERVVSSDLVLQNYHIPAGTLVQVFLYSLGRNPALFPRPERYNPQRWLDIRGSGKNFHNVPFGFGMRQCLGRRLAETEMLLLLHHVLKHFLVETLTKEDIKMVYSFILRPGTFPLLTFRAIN
Method: The aldosterone synthase and cortisol synthase inhibition assays employ cynomolgus adrenal gland mitochondria as the source of aldosterone synthase (CYP11B2) and cortisol synthase (CYP11B1). Mitochondria are prepared from frozen cynomolgus monkey adrenal glands according to Method A described in by J. D. McGarry et al. (Biochem. J., 1983, 214, 21-28), with a final resuspension in the AT buffer described in R. Yamaguchi et al. (Cell Death and Differentiation, 2007, 14, 616-624), frozen as aliquots in liquid nitrogen and stored at −80° C. until use. Activity of CYP11B2 and CYP11B1 in these preparations is defined as the amount of enzyme that generates 1 pmol of product in one hour under the conditions described.
Assays are performed in 96-well format in a final volume of 60 µL/well, containing 100 mM potassium phosphate, pH 7.4, 1% (v/v) DMSO, and additionally, 2 μM of corticosterone and 50 units of CYP11B2 activity. Reactions are started by the addition of NADPH to 1 mM and allowed to proceed for 90 minutes at 37° C. Reactions are terminated by the addition of 60 μL of MeCN containing an internal standard for mass spectrometry. One hundred microliters are then transferred to a glass filter plate and centrifuged at 570×g for 5 minutes and the filtrate is collected. Reaction product aldosterone is quantified by mass spectrometry. To determine the assay blank value (0% activity), NADPH is omitted from some reactions.
Dose dependent inhibition is quantified by the inclusion of compound at various concentrations. Maximum activity (100%) is defined by reactions containing NADPH, but without compound. Activities at each concentration are expressed as a percentage of the maximum activity (y-axis) and plotted against concentration of compound (x-axis) and the concentration corresponding to 50% activity (IC50) determined using the XLFit curve-fitting program using a 4-parameter logistic model.

Structure (SMILES)	IC50 [1] [µM]	IC50 [2] [µM]
O=C1CC(Cc2ccccc2)Cc2noc(Cc3ccc(C(=O)N4CC[C@@H](O)C4)cc3)c21 (stereo partly drawn) [Cpd 57, 6-Benzyl-3-[4-((R)-3-hydroxy-pyrrolidine-l-carbonyl)-benzyl]-6,7-dihydro-5H-benzo[c]isoxazol-4-one]	2.6	0.08
COCCNC(=O)c1ccc(Cc2onc3c2C(=O)CC(C)(C)C3)cc1 [Cpd 58, 4-(6,6-Dimethyl-4-oxo-4,5,6,7-tetrahydro-benzo[c]isoxazol-3-ylmethyl)-N-(2-methoxy-ethyl)-benzamide]	3.4	0.089
CN(CCO)C(=O)c1ccc(Cc2onc3c2C(=O)CC(C)(C)C3)cc1 [Cpd 59, 4-(6,6-Dimethyl-4-oxo-4,5,6,7-tetrahydro-benzo[c]isoxazol-3-ylmethyl)-N-(2-hydroxy-ethyl)-N-methyl-benzamide]	11	0.092
CC1(C)CC(=O)c2c(noc2Cc2ccc(C(=O)N3CCC[C@H](O)C3)cc2)C1 [Cpd 60, 3-[4-((S)-3-Hydroxy-piperidine-1-carbonyl)-benzyl]-6,6-dimethyl-6,7-dihydro-5H-benzo[c]isoxazol-4-one]	5.9	0.094
CC1(C)CC(=O)c2c(noc2Cc2ccc(C(=O)NCCS(C)(=O)=O)cc2)C1 [Cpd 61, 4-(6,6-Dimethyl-4-oxo-4,5,6,7-tetrahydro-benzo[c]isoxazol-3-ylmethyl)-N-(2-methanesulfonyl-ethyl)-benzamide]	7.4	0.091
CC1(C)CC(=O)c2c(noc2Cc2ccc(C(=O)N3CCNC(=O)C3)cc2)C1 [Cpd 62, 6,6-Dimethyl-3-[4-(3-oxo-piperazine-1-carbonyl)-benzyl]-6,7-dihydro-5H-benzo[c]isoxazol-4-one]	20	0.098
O=C1CC(CC2CC2)Cc2noc(Cc3ccc(C(=O)N4CC[C@@H](O)C4)cc3)c21 (stereo partly drawn) [Cpd 63, 6-Cyclopropylmethyl-3-[4-((R)-3-hydroxy-pyrrolidine-1-carbonyl)-benzyl]-6,7-dihydro-5H-benzo[c]isoxazol-4-one]	4.1	0.11
CN(CCS(C)(=O)=O)C(=O)c1ccc(Cc2onc3c2C(=O)CC(C)(C)C3)cc1 [Cpd 64, 4-(6,6-Dimethyl-4-oxo-4,5,6,7-tetrahydro-benzo[c]isoxazol-3-ylmethyl)-N-(2-methanesulfonyl-ethyl)-N-methyl-benzamide]	9.3	0.11
CC1(C)CC(=O)c2c(noc2Cc2ccc(C(=O)N3CC[C@H](O)C3)cc2)C1 [Cpd 65, 3-[4-((S)-3-Hydroxy-pyrrolidine-1-carbonyl)-benzyl]-6,6-dimethyl-6,7-dihydro-5H-benzo[c]isoxazol-4-one]	7.6	0.11
CC1CC(=O)c2c(noc2Cc2ccc(C(=O)N3CCN(C)C(=O)C3)cc2)C1 (stereo not drawn) [Cpd 66, 6-Methyl-3-[4-(4-methyl-3-oxo-piperazine-l-carbonyl)-benzyl]-6,7-dihydro-5H-benzo[c]isoxazol-4-one]	5	0.12
CC(C)N(CCO)C(=O)c1ccc(Cc2onc3c2C(=O)CC(C)(C)C3)cc1 [Cpd 67, 4-(6,6-Dimethyl-4-oxo-4,5,6,7-tetrahydro-benzo[c]isoxazol-3-ylmethyl)-N-(2-hydroxy-ethyl)-N-isopropyl-benzamide]	7.3	0.12
CC1(C)CC(=O)c2c(noc2Cc2ccc(C(=O)NCCC#N)cc2)C1 [Cpd 68, N-(2-Cyano-ethyl)-4-(6,6-dimethyl-4-oxo-4,5,6,7-tetrahydro-benzo[c]isoxazol-3-ylmethyl)-benzamide]	7.8	0.16
CC1(C)CC(=O)c2c(noc2Cc2ccc(C(=O)NCC3(O)CC3)cc2)C1 [Cpd 69, 4-(6,6-Dimethyl-4-oxo-4,5,6,7-tetrahydro-benzo[c]isoxazol-3-ylmethyl)-N-(1-hydroxy-cyclopropylmethyl)-benzamide]	13	0.16
CC1(C)CC(=O)c2c(noc2Cc2ccc(C(=O)NCC3(CO)CCCC3)cc2)C1 [Cpd 70, 4-(6,6-Dimethyl-4-oxo-4,5,6,7-tetrahydro-benzo[c]isoxazol-3-ylmethyl)-N-(1-hydroxymethyl-cyclopentylmethyl)-benzamide]	11	0.16
C[C@H](O)CNC(=O)c1ccc(Cc2onc3c2C(=O)CC(C)(C)C3)cc1 [Cpd 71, 4-(6,6-Dimethyl-4-oxo-4,5,6,7-tetrahydro-benzo[c]isoxazol-3-ylmethyl)-N-((S)-2-hydroxy-propyl)-benzamide]	20	0.17
CC1(C)CC(=O)c2c(noc2Cc2ccc(C(=O)N3CCC[C@@H](O)C3)cc2)C1 [Cpd 72, 3-[4-((R)-3-Hydroxy-piperidine-1-carbonyl)-benzyl]-6,6-dimethyl-6,7-dihydro-5H-benzo[c]isoxazol-4-one]	5.9	0.18
C[C@@H](O)CNC(=O)c1ccc(Cc2onc3c2C(=O)CC(C)(C)C3)cc1 [Cpd 73, 4-(6,6-Dimethyl-4-oxo-4,5,6,7-tetrahydro-benzo[c]isoxazol-3-ylmethyl)-N-((R)-2-hydroxy-propyl)-benzamide]	23	0.23
CC1CC(=O)c2c(noc2Cc2ccc(C(N)=O)cc2)C1 (centres unmarked) [Cpd 74, 4-(6-Methyl-4-oxo-4,5,6,7-tetrahydro-benzo[c]isoxazol-3-ylmethyl)-benzamide]	3	0.082
CC1(C)CC(=O)c2c(noc2Cc2ccc(C(N)=O)cc2)C1 [Cpd 75, 4-(6,6-Dimethyl-4-oxo-4,5,6,7-tetrahydro-benzo[c]isoxazol-3-ylmethyl)-benzamide]	15	0.1
CC(C)C1CC(=O)c2c(noc2Cc2ccc(C(N)=O)cc2)C1 (centres unmarked) [Cpd 76, 4-(6-Isopropyl-4-oxo-4,5,6,7-tetrahydro-benzo[c]isoxazol-3-ylmethyl)-benzamide]	0.53	0.025
NC(=O)c1ccc(Cc2onc3c2C(=O)CC2(CCC2)C3)cc1 [Cpd 77, 4-(-6,6-spiro-cyclobutyl-4-oxo-4,5,6,7-tetrahydro-benzo[c]isoxazol-3-ylmethyl)-benzamide]	0.13	0.012
CC1(C)CC(=O)c2c(noc2Cc2ccc(OCCCC(N)=O)cc2)C1 [Cpd 78]	3.3	0.024
CN(C)C(=O)CCCOc1ccc(Cc2onc3c2C(=O)CC(C)(C)C3)cc1 [Cpd 79]	7.8	0.023
CNC(=O)CCOc1ccc(Cc2onc3c2C(=O)CC(C)(C)C3)cc1 [Cpd 80, 3-[4-(6,6-Dimethyl-4-oxo-4,5,6,7-tetrahydro-benzo[c]isoxazol-3-ylmethyl)-phenoxy]-N-methyl-propionamide]	1.8	0.029
CC1(C)CC(=O)c2c(noc2Cc2ccc(OCCC(N)=O)cc2)C1 [Cpd 81, 3-[4-(6,6-Dimethyl-4-oxo-4,5,6,7-tetrahydro-benzo[c]isoxazol-3-ylmethyl)-phenoxy]-propionamide]	2.5	0.035
